What follows are compounds tested on hypoxia-inducible endogenous VEGF expression in HeLa cells (assay: Hypoxia-inducible endogenous VEGF expression, VEGF ELISA of conditioned media (dose-response EC50)). Settings: HeLa cells under hypoxic conditions.
Assay type: cell-based
Summary of the method: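 HeLa cells were cultured 24-48 h under hypoxia (1% O2, 5% CO2, balance N2) with or without compound. Conditioned-media VEGF protein was measured by ELISA against a standard curve. EC50 and CC50 come from percentage-inhibition curves over, e.g., seven concentrations, with maximal inhibition set at 100%.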

| EC50 | SMILES |
| --- | --- |
| > 1 µM | Clc1ccc2[nH]c3c(c2c1)CCN(Cc1ccco1)C3c1ccco1 (stereo not drawn) [Compound 265] |

Same assay, conditions: HeLa cells, hypoxic conditions (1% O2)

| EC50 | SMILES |
| --- | --- |
| < 0.008 µM | COC(=O)c1ccc(C2c3[nH]c4ccc(Cl)cc4c3CCN2C(=O)Oc2ccc(F)cc2)cc1 (stereo not drawn) [Compound 579] |

Same assay, conditions: Homo sapiens, HeLa cells under hypoxic conditions

| EC50 | SMILES |
| --- | --- |
| > 1 µM | CCOC(=O)N1CCc2[nH]c3ccc(Br)cc3c2C1 [Compound 243] |
| > 1 µM | Clc1ccc2[nH]c3c(c2c1)CCN(Cc1ccccc1)C3c1cc2c(cc1Cl)OCO2 (stereo not drawn) [Compound 274] |
| < 0.008 µM | CCOC(=O)N1CCc2c([nH]c3ccc(Br)cc23)C1c1ccc(Br)cc1 (stereo not drawn) [Compound 3] |
| 0.2 to 1 µM | COc1ccc(C2NCCc3c2[nH]c2ccc(Br)cc32)cc1 (stereo not drawn) [Compound 214] |
| > 1 µM | COc1ccc(C2c3[nH]c4ccccc4c3CCN2C(=S)NC2CCCCC2)cc1 (stereo not drawn) [Compound 312] |
| 0.2 to 1 µM | Clc1ccc(CC2NCCc3c2[nH]c2ccc(Cl)cc32)c(Cl)c1 (stereo not drawn) [Compound 222] |
| < 0.008 µM | COC(=O)N1CCc2c([nH]c3ccc(Cl)cc23)C1c1ccc(C(C)C)cc1 (stereo not drawn) [Compound 34] |
| > 1 µM | COc1ccc2c3c([nH]c2c1)C(c1ccccc1)NCC3 (stereo not drawn) [Compound 321] |
| 0.008 to 0.04 µM | CC(=O)N1CCc2c([nH]c3ccc(Br)cc23)C1c1cccc(C(F)(F)F)c1 (stereo not drawn) [Compound 80] |
| > 1 µM | CCOC(=O)N1CCc2c([nH]c3ccc(OCc4ccccc4)cc23)C1c1ccc(OC)cc1 (stereo not drawn) [Compound 278] |
| 0.04 to 0.2 µM | Brc1ccc2[nH]c3c(c2c1)CCN(c1ncccn1)C3c1ccc(OCCN2CCOCC2)cc1 (stereo not drawn) [Compound 357] |
| 0.008 to 0.04 µM | CC(C)OC(=O)N1CCc2c([nH]c3ccc(Cl)cc23)C1c1ccccc1 (stereo not drawn) [Compound 101] |
| 0.2 to 1 µM | Clc1ccc2[nH]c3c(c2c1)CCN(Cc1ccco1)C3C1CCCCC1 (stereo not drawn) [Compound 228] |
| 0.008 to 0.04 µM | COC(=O)N1CCc2c([nH]c3ccc(Cl)cc23)C1c1ccccc1F (stereo not drawn) [Compound 108] |
| 0.008 to 0.04 µM | CCOC(=O)N1CCc2c([nH]c3ccc(Cl)cc23)C1c1ccc2c(c1)OCO2 (stereo not drawn) [Compound 113] |
| 0.008 to 0.04 µM | COC(=O)N1CCc2c([nH]c3ccc(Cl)cc23)C1c1cccc(F)c1 (stereo not drawn) [Compound 84] |
| 0.04 to 0.2 µM | C[C@H](NC(=O)OC(C)(C)C)C(=O)N1CCc2c([nH]c3ccc(Cl)cc23)C1c1ccccc1 (stereo partly drawn) [Compound 166] |
| > 1 µM | Cc1cccc2c3c([nH]c12)C(c1ccccc1)NCC3 (stereo not drawn) [Compound 326] |
| 0.2 to 1 µM | COc1ccc(C2c3[nH]c4ccc(Cl)cc4c3CCN2C(=O)Cc2ccccc2)cc1 (stereo not drawn) [Compound 368] |
| 0.04 to 0.2 µM | FC(F)(F)c1ccc(C2NCCc3c2[nH]c2ccc(Cl)cc32)cc1 (stereo not drawn) [Compound 159] |
| > 1 µM | CC(C)(C)OC(=O)N[C@@H](Cc1ccccc1)C(=O)N1CCc2c([nH]c3ccc(Cl)cc23)C1c1ccccc1 (stereo partly drawn) [Compound 233] |
| 0.04 to 0.2 µM | CCOC(=O)N1CCc2c([nH]c3ccc(Cl)cc23)C1c1ccccc1OC (stereo not drawn) [Compound 169] |
| 0.04 to 0.2 µM | Fc1ccc(C2NCCc3c2[nH]c2ccc(Cl)cc32)c(F)c1 (stereo not drawn) [Compound 163] |
| 0.04 to 0.2 µM | COC(=O)N1CCc2c([nH]c3ccc(Cl)cc23)C1c1cc(F)ccc1F (stereo not drawn) [Compound 154] |
| 0.008 to 0.04 µM | CC(=O)N1CCc2c([nH]c3ccc(Br)cc23)C1c1cccc(Cl)c1 (stereo not drawn) [Compound 98] |

| EC50 | SMILES |
| --- | --- |
| 0.2 to 1 µM | FC(F)(F)c1cccc(C2NCCc3c2[nH]c2ccc(Br)cc32)c1 (stereo not drawn) [Compound 207] |
| < 0.008 µM | O=C(OCCCl)N1CCc2c([nH]c3ccc(Cl)cc23)C1c1cccc(F)c1F (stereo not drawn) [Compound 6] |
| 0.008 to 0.04 µM | COC(=O)N1CCc2c([nH]c3ccc(Cl)cc23)C1c1ccc(C(F)(F)F)cc1 (stereo not drawn) [Compound 62] |
| > 1 µM | Oc1ccccc1C1NCCc2c1[nH]c1ccc(Br)cc21 (stereo not drawn) [Compound 378] |
| > 1 µM | COc1ccc(C2NC(C(=O)Nc3ncc(C)s3)Cc3c2[nH]c2ccc(Br)cc32)cc1 (stereo not drawn) [Compound 246] |
| 0.2 to 1 µM | Fc1ccc(F)c(C2NCCc3c2[nH]c2ccc(Cl)cc32)c1 (stereo not drawn) [Compound 194] |
| 0.04 to 0.2 µM | COC(=O)N1CCc2c([nH]c3ccc(Cl)cc23)C1c1cccc(OC)c1 (stereo not drawn) [Compound 127] |
| < 0.008 µM | CCOC(=O)N1CCc2c([nH]c3ccc(Br)cc23)C1c1ccc(OC)cc1 (stereo not drawn) [Compound 112] |
| 0.008 to 0.04 µM | COC(=O)N1CCc2c([nH]c3ccc(Cl)cc23)C1c1cccc(F)c1F (stereo not drawn) [Compound 53] |
| > 1 µM | COc1ccc(C2c3[nH]c4ccccc4c3CCN2C(=S)NC(C)C)cc1 (stereo not drawn) [Compound 289] |
| > 1 µM | Cc1ccc(C2NCCc3c2[nH]c2ccc(F)cc32)cc1 (stereo not drawn) [Compound 255] |
| 0.008 to 0.04 µM | CCOC(=O)N1CCc2c([nH]c3ccc(Br)cc23)C1c1cc(F)cc(F)c1 (stereo not drawn) [Compound 64] |
| 0.04 to 0.2 µM | COc1ccc(C2c3[nH]c4ccc(Cl)cc4c3CCN2C(=O)Nc2cccc(F)c2)cc1 (stereo not drawn) [Compound 160] |
| 0.2 to 1 µM | COc1ccc(NC(=O)N2CCc3c([nH]c4ccc(Cl)cc34)C2c2ccc(OC)cc2)cc1 (stereo not drawn) [Compound 186] |
| > 1 µM | c1ccc(COc2ccc(C3NCCc4c3[nH]c3ccc(OCc5ccccc5)cc43)cc2)cc1 (stereo not drawn) [Compound 288] |
| 0.008 to 0.04 µM | CS(=O)(=O)c1ccc(C2c3[nH]c4ccc(Cl)cc4c3CCN2C(=O)Oc2ccc(Cl)cc2)cc1 (stereo not drawn) [Compound 360] |
| > 1 µM | CCOC(=O)N1Cc2c([nH]c3ccc(Cl)cc23)C(c2ccccc2)C1 (stereo not drawn) [Compound 250] |
| 0.008 to 0.04 µM | COC(=O)N1CCc2c([nH]c3ccc(Cl)cc23)C1c1ccc(F)cc1 (stereo not drawn) [Compound 68] |
| > 1 µM | COc1ccc(C2NC(C(=O)N3CCOCC3)Cc3c2[nH]c2ccc(Br)cc32)cc1 (stereo not drawn) [Compound 247] |
| 0.2 to 1 µM | Fc1ccc(C2NCCc3c2[nH]c2ccc(Cl)cc32)cc1F (stereo not drawn) [Compound 215] |
| 0.04 to 0.2 µM | COc1ccc(C2c3[nH]c4ccc(C)cc4c3CCN2C(=O)Oc2ccc(Cl)cc2)cc1 (stereo not drawn) [Compound 341] |
| > 1 µM | Clc1ccc2[nH]c3c(c2c1)CCN(Cc1ccccc1)C3c1cccnc1 (stereo not drawn) [Compound 276] |
| > 1 µM | COc1ccc(C2NCCc3c2[nH]c2ccccc32)cc1 (stereo not drawn) [Compound 313] |
| > 1 µM | CCOC(=O)N1Cc2c([nH]c3ccc(Br)cc23)C(O)C1 (stereo not drawn) [Compound 249] |

Same assay, conditions: Homo sapiens, HeLa cells, hypoxic conditions (1% O2)

| EC50 | SMILES |
| --- | --- |
| 0.008 to 0.04 µM | O=C(Oc1ccc([N+](=O)[O-])cc1)N1CCc2c([nH]c3ccc(Cl)cc23)C1c1ccc(OCC(O)CO)cc1 (stereo not drawn) [Compound 632] |
| 0.04 to 0.2 µM | CNc1ncc(C2c3[nH]c4ccc(Br)cc4c3CCN2C(=O)Oc2ccc(OC)cc2)cn1 (stereo not drawn) [Compound 503] |
| 0.008 to 0.04 µM | COc1ccc(C2c3[nH]c4ccc(Cl)cc4c3CCN2C(=O)c2ccc(-c3ccccc3)cc2)cc1 (stereo not drawn) [Compound 464] |
| > 1 µM | CC(C)(C)CC1NCCc2c1[nH]c1ccc(Cl)cc21 (stereo not drawn) [Compound 565] |
| 0.04 to 0.2 µM | CCOC(=O)N1CCc2c([nH]c3ccc(Cl)cc23)C1c1ccc(S(=O)(=O)N2CCOCC2)cc1 (stereo not drawn) [Compound 487] |
| 0.2 to 1 µM | O=C(Oc1ccc(Cl)cc1)N1CCc2c([nH]c3ccc(Cl)cc23)C1c1ccc(OCCO)cc1 (stereo not drawn) [Compound 571] |
| 0.04 to 0.2 µM | CCOC(=O)N1CCc2c([nH]c3ccc(Cl)cc23)C1c1ccc(C(=O)N2CCCN(C)CC2)cc1 (stereo not drawn) [Compound 514] |
| < 0.008 µM | COCCOc1ccc(C2c3[nH]c4ccc(Cl)cc4c3CCN2C(=O)OCCF)cc1 (stereo not drawn) [Compound 423] |
| 0.2 to 1 µM | CCOC(=O)N1CCc2c([nH]c3ccc(Cl)cc23)C1C(C)Cc1ccc(C(C)(C)C)cc1 (stereo not drawn) [Compound 528] |
| 0.008 to 0.04 µM | CCOC(=O)N1CCc2c([nH]c3ccc(Br)cc23)C1c1ccc(C(=O)N2CCN(CCO)CC2)cc1 (stereo not drawn) [Compound 466] |
| < 0.008 µM | C=CCOc1ccc(C2c3[nH]c4ccc(Cl)cc4c3CCN2C(=O)OCC(C)C)cc1 (stereo not drawn) [Compound 414] |
| 0.2 to 1 µM | CCOC(=O)N1CCc2c([nH]c3ccc(Cl)cc23)C1c1ccc(C(=O)NCCC2CCCN2C)cc1 (stereo not drawn) [Compound 521] |
| > 1 µM | O=C(O)c1ccc(C2c3[nH]c4ccc(Cl)cc4c3CCN2C(=O)Oc2ccc(F)cc2)cc1 (stereo not drawn) [Compound 581] |
| < 0.008 µM | O=C(Oc1ccc(Cl)cc1)N1CCc2c([nH]c3ccc(Cl)cc23)C1c1ccc(OCCCn2ccnn2)cc1 (stereo not drawn) [Compound 417] |

| SMILES | EC50 |
| --- | --- |
| COCCCNCCCCCCOc1ccc(C2c3[nH]c4ccc(Cl)cc4c3CCN2C(=O)Oc2ccc(F)cc2)cc1 (stereo not drawn) [Compound 775] | < 0.008 µM |
| O=C(Oc1ccc(F)cc1)N1CCc2c([nH]c3ccc(Cl)cc23)C1c1ccc(OCC(O)CN2CCOCC2)cc1 (stereo not drawn) [Compound 638] | < 0.008 µM |
| CN(C)CC(=O)Nc1ccc(C2c3[nH]c4ccc(Cl)cc4c3CCN2C(=O)Oc2ccc(Cl)cc2)cc1 (stereo not drawn) [Compound 491] | 0.04 to 0.2 µM |
| O=C(Oc1ccc(Cl)cc1)N1CCc2c([nH]c3ccc(Cl)cc23)C1c1ccc(OCCCCCCNCCCn2ccnc2)cc1 (stereo not drawn) [Compound 789] | 0.04 to 0.2 µM |
| O=C(Oc1ccc(F)cc1)N1CCc2c([nH]c3ccc(Cl)cc23)C1c1ccc(OCCCCN2CCCCC2)cc1 (stereo not drawn) [Compound 739] | < 0.008 µM |
| O=C(Oc1ccc(Cl)cc1)N1CCc2c([nH]c3ccc(Cl)cc23)C1c1ccc(OCCCCN2CCCCC2)cc1 (stereo not drawn) [Compound 703] | 0.008 to 0.04 µM |
| CC(C)NCCCCCCOc1ccc(C2c3[nH]c4ccc(Cl)cc4c3CCN2C(=O)Oc2ccc(Cl)cc2)cc1 (stereo not drawn) [Compound 784] | < 0.008 µM |

Same assay, conditions: Homo sapiens, HeLa cells, hypoxic conditions (1% O2, 5% CO2)

| EC50 | SMILES |
| --- | --- |
| 0.04 to 0.2 µM | CC(C)(C)OC(=O)N1CCC(COc2ccc(C3c4[nH]c5ccc(Cl)cc5c4CCN3C(=O)Oc3ccc(Cl)cc3)cc2)CC1 (stereo not drawn) [Compound 845] |
| < 0.008 µM | O=C(Oc1ccc(Cl)cc1)N1CCc2c([nH]c3ccc(Cl)cc23)C1c1ccc(OCCNc2nccs2)cc1 (stereo not drawn) [#841] |
| < 0.008 µM | O=C(Oc1ccc(F)cc1)N1CCc2c([nH]c3ccc(Cl)cc23)C1c1ccc(OCCNc2nccs2)cc1 (stereo not drawn) [#837] |
| < 0.008 µM | O=C(Oc1ccccc1)N1CCc2c([nH]c3ccc(Cl)cc23)C1c1ccc(OCCCn2cncn2)cc1 (stereo not drawn) [Compound 891] |
| < 0.008 µM | O=C(Oc1ccc(Cl)cc1)N1CCc2c([nH]c3ccc(Cl)cc23)C1c1ccc(OCCCCl)cc1 (stereo not drawn) [Compound 921] |

| SMILES | EC50 |
| --- | --- |
| CN1CCN(CCCOc2ccc(C3c4[nH]c5ccc(Cl)cc5c4CCN3C(=O)Oc3ccc(Cl)cc3)cc2)CC1 (stereo not drawn) [Compound 961] | 0.008 to 0.04 µM |

— patent publication US8076352B2, “Administration of carboline derivatives useful in the treatment of cancer and other diseases” (PTC Therapeutics, Inc., priority 2004, dated 2011)
